The values below come from patent publication US10494355B2, “Oxadiazole amine derivative compounds as histone deacetylase 6 inhibitor, and the pharmaceutical composition comprising the same” (Chong Kun Dang Pharmaceutical Corp., priority 2015, dated 2019).

One assay deals with T1, human recombinant HDAC1 (Homo sapiens, UniProt Q13547).
T1 construct: purchased Enzo Life Science BML-SE456
Briefly: HDAC1 enzyme activity inhibition assay (HDAC Fluorimetric Drug Discovery Kit). Type of assay: biochemical. Conditions: human recombinant HDAC1, 10 μM substrate, 30° C. 60 minutes. The procedure:
(§1) In order to examine the HDAC6 selectivity of the compounds of formula I of the present invention by HDAC1 and HDAC6 enzymatic activity inhibition assays, an experiment was performed using a conventional substance as a control.
(§2) HDAC enzyme activity was measured using a HDAC Fluorimetric Drug Discovery Kit (BML-AK511, 516, Enzo Life Science). For the HDAC1 enzyme activity test, human recombinant HDAC1 (BML-SE456) was used as an enzyme source, and Fluor de Lys®-“SIRT1 (BNL-KI177) was used as a substrate. A 5-fold dilution of the compound was seeded into a 96-well plate, and then 0.3 μg of the enzyme and 10 μM of the substrate were added to each well of the plate and allowed to react at 30° C. for 60 minutes. Then, Fluor de Lys®-Developer II (BML-KI176) was added thereto and allowed to react for 30 minutes, after which the fluorescence value (Ex 360, Em 460) was measured using a multi-plate reader (Flexstation 3, Molecular Device). The HDAC6 enzyme was tested using human recombinant HDAC6 (382180) (Calbiochem) according to the same protocol as the HDAC1 enzyme activity test method. Based on the resulting values, each IC50 value was calculated using GraphPad Prism4.0 program.

The next assay addresses T2, human recombinant HDAC6 (Homo sapiens, UniProt Q9UBN7).
T2 construct: purchased Calbiochem 382180
T2 sequence (Q9UBN7 1-1215): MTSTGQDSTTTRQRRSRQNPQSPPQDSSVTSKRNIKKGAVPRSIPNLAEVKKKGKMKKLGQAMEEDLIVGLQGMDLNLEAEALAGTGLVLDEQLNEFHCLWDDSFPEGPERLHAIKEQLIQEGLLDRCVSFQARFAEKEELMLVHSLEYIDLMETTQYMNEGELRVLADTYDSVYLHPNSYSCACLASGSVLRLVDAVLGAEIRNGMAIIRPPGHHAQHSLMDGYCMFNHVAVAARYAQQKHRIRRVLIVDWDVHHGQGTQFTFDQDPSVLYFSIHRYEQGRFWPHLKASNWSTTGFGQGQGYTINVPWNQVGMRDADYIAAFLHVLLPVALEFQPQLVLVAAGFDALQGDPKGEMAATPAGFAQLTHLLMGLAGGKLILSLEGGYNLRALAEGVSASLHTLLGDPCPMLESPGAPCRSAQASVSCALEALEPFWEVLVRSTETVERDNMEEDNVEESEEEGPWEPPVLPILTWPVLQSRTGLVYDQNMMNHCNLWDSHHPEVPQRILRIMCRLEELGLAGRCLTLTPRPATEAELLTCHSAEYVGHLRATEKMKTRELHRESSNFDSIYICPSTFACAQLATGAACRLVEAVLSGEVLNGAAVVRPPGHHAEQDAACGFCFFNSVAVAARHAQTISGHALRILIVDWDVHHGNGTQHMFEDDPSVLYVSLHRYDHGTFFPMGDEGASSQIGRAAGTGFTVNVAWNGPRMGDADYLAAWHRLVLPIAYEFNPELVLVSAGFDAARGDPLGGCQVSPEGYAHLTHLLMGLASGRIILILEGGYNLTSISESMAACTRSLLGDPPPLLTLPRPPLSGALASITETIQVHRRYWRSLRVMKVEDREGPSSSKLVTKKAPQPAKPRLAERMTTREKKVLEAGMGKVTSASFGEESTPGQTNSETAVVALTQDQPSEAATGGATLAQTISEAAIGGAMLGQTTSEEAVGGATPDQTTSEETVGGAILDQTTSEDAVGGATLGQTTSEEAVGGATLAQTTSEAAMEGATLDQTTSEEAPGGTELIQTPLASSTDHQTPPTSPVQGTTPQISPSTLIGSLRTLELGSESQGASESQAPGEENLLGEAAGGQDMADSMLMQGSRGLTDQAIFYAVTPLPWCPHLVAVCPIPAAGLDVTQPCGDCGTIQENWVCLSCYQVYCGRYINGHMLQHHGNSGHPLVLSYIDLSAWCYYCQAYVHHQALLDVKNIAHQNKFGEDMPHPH
Briefly: HDAC6 enzyme activity inhibition assay (HDAC Fluorimetric Drug Discovery Kit). Type of assay: biochemical. Conditions: 30° C. 60 minutes. The procedure:
as §1, §2

Some results are limits rather than exact numbers.

T1 sequence (Q13547 whole entry): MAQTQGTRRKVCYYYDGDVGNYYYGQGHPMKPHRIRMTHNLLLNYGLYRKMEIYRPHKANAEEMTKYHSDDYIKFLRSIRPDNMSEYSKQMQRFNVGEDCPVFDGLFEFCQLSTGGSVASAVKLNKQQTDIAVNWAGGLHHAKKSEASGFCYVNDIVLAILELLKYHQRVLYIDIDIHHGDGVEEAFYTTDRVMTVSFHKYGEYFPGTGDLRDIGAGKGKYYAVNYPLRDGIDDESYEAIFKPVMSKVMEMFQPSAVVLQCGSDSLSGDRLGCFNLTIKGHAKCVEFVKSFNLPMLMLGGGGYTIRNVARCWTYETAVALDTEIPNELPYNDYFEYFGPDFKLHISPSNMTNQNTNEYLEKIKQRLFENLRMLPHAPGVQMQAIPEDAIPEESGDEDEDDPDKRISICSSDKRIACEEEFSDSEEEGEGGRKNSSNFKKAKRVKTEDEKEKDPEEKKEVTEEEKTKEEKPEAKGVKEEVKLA

As usually defined, the IC50 is the midpoint of a concentration-inhibition curve. `COc1ccc(C2(Nc3ncc(-c4nnc(C(F)F)o4)cn3)CC2)cc1` [Compound 2049, 5-(5-(difluoromethyl)-1,3,4-oxadiazol-2-yl)-N-(1-(4-methoxyphenyl)cyclopropyl)pyrimidin-2-amine]: the IC50 on human recombinant HDAC1 was > 10000 nM; at human recombinant HDAC6, 51 nM.
Turning to `Fc1cc(F)cc(C2(Nc3ncc(-c4nnc(C(F)F)o4)cn3)CC2)c1` [Compound 2057, 5-(5-(difluoromethyl)-1,3,4-oxadiazol-2-yl)-N-(1-(3,5-difluorophenyl)cyclopropyl)pyrimidin-2-amine], the figures for the IC50 on human recombinant HDAC1 and on human recombinant HDAC6 were > 10000 nM and 33 nM, respectively.
As for `Fc1cc(Cl)ccc1C1(Nc2ncc(-c3nnc(C(F)F)o3)cn2)CC1` [Compound 2056, N-(1-(4-chloro-2-fluorophenyl)cyclopropyl)-5-(5-(difluoromethyl)-1,3,4-oxadiazol-2-yl)pyrimidin-2-amine], the IC50 at human recombinant HDAC1 was > 10000 nM; at human recombinant HDAC6, 35 nM.
With `Cc1ccc(C2(Nc3ncc(-c4nnc(C(F)(F)F)o4)cn3)CCC2)cc1` [Compound 1676, N-(1-(p-tolyl)cyclobutyl)-5-(5-(trifluoromethyl)-1,3,4-oxadiazol-2-yl)pyrimidin-2-amine], the values for the IC50 at human recombinant HDAC1 and on human recombinant HDAC6 were > 10000 nM and 242 nM, respectively.
As to `Fc1cc(C2(Nc3ncc(-c4nnc(C(F)F)o4)cn3)CC2)ccc1Cl` [Compound 2054, N-(1-(4-chloro-3-fluorophenyl)cyclopropyl)-5-(5-(difluoromethyl)-1,3,4-oxadiazol-2-yl)pyrimidin-2-amine], the IC50 at human recombinant HDAC1 was > 10000 nM; on human recombinant HDAC6 it was 83 nM.
`Fc1ccc(C2(Nc3ncc(-c4nnc(C(F)F)o4)cn3)CCC2)cc1N1CCOCC1` [Compound 2046, 5-(5-(difluoromethyl)-1,3,4-oxadiazol-2-yl)-N-(1-(4-fluoro-3-morpholinophenyl)cyclobutyl)pyrimidin-2-amine]: the IC50 on human recombinant HDAC1 is > 10000 nM; at human recombinant HDAC6, 329 nM.
Take `FC(F)(F)c1nnc(-c2cnc(NC3(c4ccccc4)CCCCC3)nc2)o1` [Compound 1582, N-(1-phenylcyclohexyl)-5-(5-(trifluoromethyl)-1,3,4-oxadiazol-2-yl)pyrimidin-2-amine]: the IC50 on human recombinant HDAC1 was > 10000 nM; on human recombinant HDAC6, 1250 nM.
`CC(C)N1CCC(c2ccc(C3(Nc4ncc(-c5nnc(C(F)F)o5)cn4)CCC3)cc2)CC1` [Compound 2037, 5-(5-(difluoromethyl)-1,3,4-oxadiazol-2-yl)-N-(1-(4-(1-isopropylpiperidin-4-yl)phenyl)cyclobutyl)pyrimidin-2-amine]: the IC50 at human recombinant HDAC1 is > 10000 nM; at human recombinant HDAC6, 397 nM.
On to `FC(F)(F)c1nnc(-c2cnc(NC3(c4ccccc4)CC3)nc2)o1` [Compound 1526, N-(1-phenylcyclopropyl)-5-(5-(trifluoromethyl)-1,3,4-oxadiazol-2-yl)pyrimidin-2-amine], for which the figures for the IC50 at human recombinant HDAC1 and on human recombinant HDAC6 were > 10000 nM and 179 nM, respectively.
As for `Fc1ccccc1C1(Nc2ncc(-c3nnc(C(F)F)o3)cn2)CC1` [Compound 1683, 5-(5-(difluoromethyl)-1,3,4-oxadiazol-2-yl)-N-(1-(2-fluorophenyl)cyclopropyl)pyrimidin-2-amine], the IC50 on human recombinant HDAC1 is > 10000 nM; at human recombinant HDAC6, 21 nM.
With `FC(F)c1nnc(-c2cnc(NC3(c4cccc(Cl)c4Cl)CCC3)nc2)o1` [Compound 1832, N-(1-(2,3-dichlorophenyl)cyclobutyl)-5-(5-(difluoromethyl)-1,3,4-oxadiazol-2-yl)pyrimidin-2-amine], the IC50 on human recombinant HDAC1 was > 10000 nM; at human recombinant HDAC6, 100 nM.
For the molecule `FC(F)c1nnc(-c2cnc(NC3(c4c(Cl)cccc4Cl)CCC3)nc2)o1` [Compound 1838, N-(1-(2,6-dichlorophenyl)cyclobutyl)-5-(5-(difluoromethyl)-1,3,4-oxadiazol-2-yl)pyrimidin-2-amine], the IC50 at human recombinant HDAC1 is > 10000 nM; at human recombinant HDAC6, 110 nM.
The corresponding values for `Fc1cc(F)c(C2(Nc3ncc(-c4nnc(C(F)F)o4)cn3)CCC2)cc1F` [Compound 1826, 5-(5-(difluoromethyl)-1,3,4-oxadiazol-2-yl)-N-(1-(2,4,5-trifluorophenyl)cyclobutyl)pyrimidin-2-amine] are > 10000 nM and 120 nM.
Take `FC(F)c1nnc(-c2cnc(NC3(c4ccc(Cl)c(Cl)c4)CCC3)nc2)o1` [Compound 1834, N-(1-(3,4-dichlorophenyl)cyclobutyl)-5-(5-(difluoromethyl)-1,3,4-oxadiazol-2-yl)pyrimidin-2-amine]: the IC50 at human recombinant HDAC1 was > 10000 nM; at human recombinant HDAC6 it was 120 nM.
For `Fc1ccc(C2(Nc3ncc(-c4nnc(C(F)F)o4)cn3)CCC2)cc1F` [Compound 2045, 5-(5-(difluoromethyl)-1,3,4-oxadiazol-2-yl)-N-(1-(3,4-difluorophenyl)cyclobutyl)pyrimidin-2-amine], in that order: > 10000 nM and 61 nM.
The corresponding values for `FC(F)c1nnc(-c2cnc(NC3(c4cccc(Cl)c4)CC3)nc2)o1` [Compound 2050, N-(1-(3-chlorophenyl)cyclopropyl)-5-(5-(difluoromethyl)-1,3,4-oxadiazol-2-yl)pyrimidin-2-amine] are > 10000 nM and 26 nM.
For `Fc1ccc(C2(Nc3ncc(-c4nnc(C(F)F)o4)cn3)CCC2)cc1Cl` [Compound 1817, N-(1-(3-chloro-4-fluorophenyl)cyclobutyl)-5-(5-(difluoromethyl)-1,3,4-oxadiazol-2-yl)pyrimidin-2-amine], the IC50 at human recombinant HDAC1 is > 10000 nM; at human recombinant HDAC6, 78 nM.
With `Fc1ccc(C2(Nc3ncc(-c4nnc(C(F)F)o4)cn3)CC2)cc1F` [Compound 2058, 5-(5-(difluoromethyl)-1,3,4-oxadiazol-2-yl)-N-(1-(3,4-difluorophenyl)cyclopropyl)pyrimidin-2-amine], the IC50 at human recombinant HDAC1 is > 10000 nM; at human recombinant HDAC6 it was 39 nM.
Turning to `Oc1cccc(C2(Nc3ncc(-c4nnc(C(F)F)o4)cn3)CCC2)c1` [Compound 1761, 3-(1-((5-(5-(difluoromethyl)-1,3,4-oxadiazol-2-yl)pyrimidin-2-yl)amino)cyclobutyl)phenol], the values for the IC50 on human recombinant HDAC1 and on human recombinant HDAC6 were > 10000 nM and 25 nM, respectively.
`FC(F)(F)c1nnc(-c2cnc(NC3(c4cccc(Cl)c4Cl)CCC3)nc2)o1` [Compound 1833, N-(1-(2,3-dichlorophenyl)cyclobutyl)-5-(5-(trifluoromethyl)-1,3,4-oxadiazol-2-yl)pyrimidin-2-amine]: the IC50 was > 10000 nM on human recombinant HDAC1 and 750 nM at human recombinant HDAC6.
`Cc1cccc(C2(Nc3ncc(-c4nnc(C(F)F)o4)cn3)CCC2)c1` [Compound 1673, 5-(5-(difluoromethyl)-1,3,4-oxadiazol-2-yl)-N-(1-(m-tolyl)cyclobutyl)pyrimidin-2-amine]: the IC50 at human recombinant HDAC1 is > 10000 nM; on human recombinant HDAC6, 25 nM.
For `FC(F)c1nnc(-c2cnc(NC3(c4cccc(Cl)c4)CCC3)nc2)o1` [Compound 1615, N-(1-(3-chlorophenyl)cyclobutyl)-5-(5-(difluoromethyl)-1,3,4-oxadiazol-2-yl)pyrimidin-2-amine], in that order: > 10000 nM and 22 nM.
With `Fc1ccc(C2(Nc3ncc(-c4nnc(C(F)F)o4)cn3)CC2)cc1F` [Compound 1779, 5-(5-(difluoromethyl)-1,3,4-oxadiazol-2-yl)-N-(1-(3,4-difluorophenyl)cyclopropyl)pyrimidin-2-amine], the IC50 at human recombinant HDAC6 is 134 nM.
